Test results from patent US4503065A, “Antiinflammatory 4,5-diaryl 1-2-halo imidazoles” (E. I. Du Pont de Nemours and Company, priority 1982, dated 1985).
Like-named read-outs stand apart in the source and are kept apart here.

Tested on: adjuvant-induced arthritis in rats
Test: Established adjuvant-induced arthritis in rats (paw volume of uninjected left hind paw)
Assay type: in vivo, Charles River Lewis male rats
Conditions: for ED50: read-out: Adjuvant Arthritis ED50 (effective dose at which a 50% decrease from control paw volume is observed); for Percent decrease from control paw volume: 7 days
[1] = at 50 mg/kg daily dose, rat, oral gavage
[2] = at 27 mg/kg daily dose, rat, oral gavage
[3] = rat, oral gavage, daily for 7 days, paw volume one day after last dose, ED50 by visual-fit regression

With `CC(=O)Oc1ccccc1C(=O)O` [Aspirin, reference compound] as the compound, how does the ED50 (Rattus norvegicus, po) read?
The ED50 was 305 mg/kg.

Which “Percent decrease from control paw volume” value [1] does the source give for `Br.Fc1ccc(-c2nc(Br)[nH]c2-c2ccc(F)cc2)cc1` [Example 1, 2-Bromo-4,5-bis(4-fluorophenyl)-1H-imidazole, Hydrobromide] here?
Its value is 33%.

With `Br.COc1ccc(-c2nc(Br)[nH]c2-c2ccc(OC)cc2)cc1` [Example 2, 2-Bromo-4,5-bis(4-methoxyphenyl)-1H-imidazole, Hydrobromide] as the compound, how does the “Percent decrease from control paw volume” value [2] read?
The value was 46%.

How did the ED50 [3] turn out when `Br.Clc1ccc(-c2nc(Br)[nH]c2-c2ccc(Cl)cc2)cc1` [Example 3, 2-Bromo-4,5-bis(4-chlorophenyl)-1H-imidazole, Hydrobromide] was run?
The ED50 was 5.2 mg/kg.

For `Br.CSc1ccc(-c2nc(Br)[nH]c2-c2ccc(SC)cc2)cc1` [Example 4, 2-Bromo-4,5-bis(4-methylthiophenyl)-1H-imidazole, Hydrobromide], which “Percent decrease from control paw volume” value [2] is on record?
The value was 26%.

`COc1ccc(-c2nc(Cl)[nH]c2-c2ccc(OC)cc2)cc1.Cl` [Example 5, 2-Chloro-4,5-bis(4-methoxyphenyl)-1H-imidazole, Hydrochloride] was tested. Which “Percent decrease from control paw volume” value [2] did it give?
Its value is 17%.

Which “Percent decrease from control paw volume” value [2] does the source give for `COc1ccc(-c2nc(Cl)n(C)c2-c2ccc(OC)cc2)cc1` [Example 6, 2-Chloro-4,5-bis(4-methoxyphenyl)-1-methyl-1H-imidazole] here?
Its value is 35%.

For `CCOC(C)n1c(Cl)nc(-c2ccc(OC)cc2)c1-c1ccc(OC)cc1` (centres unmarked) [Example 7, 2-Chloro-1-(1-ethoxyethyl)-4,5-bis(4-methoxyphenyl)-1H-imidazole], which “Percent decrease from control paw volume” value [1] is on record?
Its value is 37%.

For `CC(C)Cc1ccc(C(C)C(=O)O)cc1` (centres unmarked) [Ibuprofen, reference compound], which ED50 [3] is on record?
Its ED50 is 100 mg/kg.

Which ED50 (Rattus norvegicus, po) does the source give for `COc1ccc2c(c1)c(CC(=O)O)c(C)n2C(=O)c1ccc(Cl)cc1` [Indomethacin, reference compound] here?
The ED50 was 0.3 mg/kg.

How did the ED50 [3] turn out when `CCCCC1C(=O)N(c2ccccc2)N(c2ccccc2)C1=O` [Phenylbutazone, reference compound] was run?
Its ED50 is 10 mg/kg.
